Test results: patent US5102907A, “Novel squalene synthetase inhibitors” (Merck & Co., Inc., priority 1990, dated 1992)
In brackets after ≈: the same amount, converted by molar mass.

How the values were obtained:
Test in all cases: antifungal (yeast) sensitivity, inhibitor dilution assay in microtiter format
Details in all cases: YNB/G, lowest concentration to prevent growth, 24 to 48 hours, 35° C., read-out: Minimum Inhibitory Concentration
[1] = system: C. parapsilosis MY1010; format: cell-based, Candida parapsilosis
Protocol: (§1) The compounds are particularly active towards filamentous fungi and yeasts including Candida albicans and Cryptococcus neoformans. The sensitivity of filamentous fungi and yeast was determined using inhibitor dilution assays in microtiter format. The compounds were dissolved in DMSO at 2 mg/ml and serially diluted in 0.1M phosphate buffer, pH 7.0 in the microtiter dish from 100 to 0.006 μg/ml. A standardized spore suspension for testing the filamentous fungi was prepared by inoculating Antibiotic Medium #3 containing 1.5% agar with spores such that 1.5×10^3 colony forming units were added per well. The microtiter wells were filled with 50 μl of buffer containing compound and 50 μl of inoculated medium.
(§2) The sensitivity of yeasts was determined by inoculating yeast nitrogen base containing 1% dextrose (YNB/G) with aliquots of an overnight yeast culture grown in Yeast Morphology (YM) media at 35° C. and diluting in YNB/G to yield a final concentration of 1.5-7.5×10^3 colony forming units/well. To test the sensitivity of yeast, compound was solubilized in 10 percent aqueous DMSO at 2.56 mg/ml. The compound was diluted serially in YNB/G from 128 to 0.06 μg/ml and further diluted 1:10 in YNB/G. The wells were filled with 150 μl of media containing drug. […]

[2] = system: C. tropicalis MY1012; format: cell-based, Candida tropicalis
Protocol: as §1, §2

[3] = system: Crypt. neoformans MY1051; format: cell-based, Cryptococcus neoformans
Protocol: as §1, §2

CC(=O)OC(CCCC12OC(C(=O)O)C(O)(C(=O)O)C(C(=O)O)(O1)C(OC(=O)CCC=CC(C)CCCc1ccccc1)C2O)C(C)Cc1ccccc1 (stereo not drawn) [Compound A]
MIC [1]: 8 µg/mL (≈ 10.6 µM)
MIC [2]: 8 µg/mL (≈ 10.6 µM)
MIC [3]: 1 µg/mL (≈ 1.32 µM)
